Series [1] in a line: in vitro. Conditions: human.
Experimental: (§1) A HIEC-6/HepG2 cell co-culture system was used to determine the bioavailability of targeted BAPs from CHs after digestion (Figure 1). HIEC-6 cells and HepG2 were cultured separately but then later combined in a transwell system using polyester (PET) ThinCerts (Greiner Bio-One, Cat no. 662641, Monroe, NC, USA) and corresponding 24 multiwell cell culture plates (Greiner Bio-One, Cat no. 662160, Monroe, NC, USA). […] HIEC-6 cells were seeded onto ThinCerts at 1 × 10^5 cells/well. The medium was changed every 2 days and cells were grown for a total of 8–9 days. […] HepG2 cells were then added to the basolateral side of the transwell (1 million cells/mL). […] At time 0, the apical medium was replaced with media containing 2 mg/mL reconstituted freeze-dried (FD) CH digesta (either CH-GL and CH-OPT), or only media (blank). The co-culture and treatments were incubated for 2 h at 37 °C, 5% CO2. After 2 h, the inserts containing HIEC-6 cells were removed, and the plates containing HepG2 cells were incubated for another 3 h. Samples were taken from the apical and basolateral sides at times 0, 2 and 5 h, and microcentrifuged at 2000 rpm for 15 min. The supernatant was collected and used for subsequent peptide analysis (see Section 2.7). Three independent experiments assessing bioavailability were completed. Controls included inserts without seeded cells (TEER control) and seeded wells with no CHs treatment (only media; negative control).
(§2) Samples were purified from cellular and protein debris by adapting the use of Amicon® Ultra-0.5 Centrifugal Filter Devices (Millipore, UFC501096, Burlington, Massachusetts, USA). Samples from cell culture were processed as per the manufacturer’s instructions, however, the filtrate (comprising of peptides) was not discarded and instead used for analysis. A CE system (Capel 205M; Lumex Instruments, Fraserview Place, BC) was used for the targeted quantification of 5 peptides (Gly-Pro, Hyp-Gly, Ala-Hyp, Pro-Hyp, Gly-Pro-Hyp). The instrument was set for 20 °C and the separation capillary (Molex, 2000019, Lisle, Illinois, US) was similar to previous CE methods for collagen analysis [36]; 60 cm in total length, 53 cm effective length, and 75 µm inside diameter. Injections were completed using pressure (30 mbar for 10 s) at 0 kV and analysis was completed at 20 kV using 0 mbar for 1199 s at 205 nm. A 0.1 M phosphate buffer (pH 2.4) was used for rinsing and as running buffer. Filtered samples were diluted with running buffer before injection. Before sample injection, the capillary was rinsed with MilliQ water, 0.5 M NaOH and running buffer, each for 5 min. The electropherograms were processed to determine peak area using the software Elforun (Lumex Instruments Canada, Version 4.2.4, Mission, BC, Canada). Quantification of each peptide, based on peak area, was performed using external standards and corresponding calibration curves, where the linearity was assessed by the coefficients of determination, R^2. The mean of three measurements for each treatment was taken.
(§3) Bioavailability, after first pass metabolism, was expressed as a percentage of final and initial peptide digesta values, as described in Sadeghi Ekbatan et al. (2018) [8]. Bioavailability (%) = Peptide content after HepG2 incubation (Basolateral 5 h)/Initial amount of peptide (Apical 0 h) × 100
The conditions of series [2]: human, in vivo.
For series [3] the following is noted: human, in vivo; cited from earlier work.
Series [4] concerns HIEC-6 cells.
Experimental: as §1, §2
(§4) The apparent permeability coefficient (Papp) was calculated similarly to Song et al. (2020) [7], using the standard equation:Papp = ΔQ/(Δt × A × C0) where Δt is the incubation time (s), A is the surface area of the insert filter membrane (cm^2), C0 is the initial concentration of peptides in the apical compartment at time 0 h (μM), and ΔQ is the amount of peptide transported within a given period (μmol/s). The incubation timepoint (Δt) used was representative of the intestinal transport phase (2 h timepoint).
The test system of another series is HIEC-6/HepG2 co-culture. To be noted: human.
Series [5] can be described thus: in vitro. To be noted: human, Apparent permeability coefficient (Papp).
Experimental: as §1, §2, §4
The subject of the next series is Caco-2 cells. Conditions: cited from earlier work.
The test system of series [6] is HepG2 cells.
Experimental: as §1
(§5) Samples were purified from cellular and protein debris by adapting the use of Amicon® Ultra-0.5 Centrifugal Filter Devices (Millipore, UFC501096, Burlington, Massachusetts, USA). Samples from cell culture were processed as per the manufacturer’s instructions, however, the filtrate (comprising of peptides) was not discarded and instead used for analysis. A CE system (Capel 205M; Lumex Instruments, Fraserview Place, BC) was used for the targeted quantification of 5 peptides (Gly-Pro, Hyp-Gly, Ala-Hyp, Pro-Hyp, Gly-Pro-Hyp). […] Injections were completed using pressure (30 mbar for 10 s) at 0 kV and analysis was completed at 20 kV using 0 mbar for 1199 s at 205 nm. A 0.1 M phosphate buffer (pH 2.4) was used for rinsing and as running buffer. Filtered samples were diluted with running buffer before injection. Before sample injection, the capillary was rinsed with MilliQ water, 0.5 M NaOH and running buffer, each for 5 min. The electropherograms were processed to determine peak area using the software Elforun (Lumex Instruments Canada, Version 4.2.4, Mission, BC, Canada). Quantification of each peptide, based on peak area, was performed using external standards and corresponding calibration curves, where the linearity was assessed by the coefficients of determination, R^2. The mean of three measurements for each treatment was taken.
(§6) Hepatic first pass effect (%) was calculated as:Hepatic effect (%) = Peptide content after incubation with HepG2 (Basolateral 5 h)/Content of peptide available for liver metabolism (Basolateral 2 h) × 100
Series [7] in a line: Peptide transport and apparent permeability across the HIEC-6 intestinal layer of a HIEC-6/HepG2 transwell co-culture. Conditions: human; for Papp A→B at 2 h: Apparent permeability coefficient (Papp), mean ± SEM.
Experimental: as §1, §2, §4
In series [8] the test system is HIEC-6 cells. The description is as above. Conditions: basolateral 2 h vs apical 0 h, mean ± SEM.
Experimental: as §1, §2, §4
The nature of series [9]: Bioavailability after first pass metabolism in HIEC-6/HepG2 co-culture. To be noted: human.
Experimental: as §1, §2, §3
Series [10] concerns HepG2 cells. The series can be described thus: Hepatic first pass effect on transported peptides after HepG2 incubation. To be noted: basolateral 5 h as percentage of basolateral 2 h, mean ± SEM.
Experimental: as §1, §5, §6
Where [11] appears, read: Peptide bioavailability after first pass metabolism.

We go through five compounds from publication PMC8928955, “Assessment of Bioavailability after In Vitro Digestion and First Pass Metabolism of Bioactive Peptides from Collagen Hydrolysates” (Current Issues in Molecular Biology, 2021).

Like-named read-outs stand apart in the source and are kept apart here. Non-standard residues stand in square brackets, D forms with d. Residues, ends and D or L forms follow the SMILES beside them. Hyp = O=C(O)[C@@H]1C[C@@H](O)CN1

Usually bioavailability stands for dose-corrected exposure relative to a reference, in per cent. Usually Papp A→B stands for the apparent permeability from the apical to the basolateral side of a cell layer. What is called Papp is a coefficient for how fast a substance crosses the barrier. With `NCC(=O)N1CCC[C@H]1C(=O)N1C[C@H](O)C[C@H]1C(=O)O` [Gly-Pro-Hyp] (H-Gly-Pro-[Hyp]-OH; N-terminus and C-terminus assumed), the bioavailability at 5 h in the series “in vitro [1]” (Bioavailability (%) after first pass metabolism) turned out to be 12.2 ± 1.12%. Moreover, in series [2], the “Increase of plasma Gly-Pro-Hyp content” value worked out at 162.5%. Further, in series [3], the “Gly-Pro-Hyp content in the plasma after 2 h” value was ~ 1050 µM and the “Initial Gly-Pro-Hyp content in the plasma” value was ~ 400 µM. In addition, in the series with HIEC-6 cells [4], the “Apparent permeability coefficient (Papp)” value is “no apparent permeability coefficient could be determined”. The “Bioavailability (%) after first pass metabolism” value in the series on HIEC-6/HepG2 co-culture was “none was observed”. Besides, the apparent permeability from apical to basolateral (Papp A→B) at 2 h in the series “in vitro [5]” was approximately 9 ×10⁻⁶ cm/s. Also, the Papp in the series on Caco-2 cells (Caco-2) is listed as 1.09 ± 0.03 × 10^−6 cm/s. Further, the “Hepatic effect (%) on peptide content following HepG2 incubation” value (“Hepatic effect (%)” below) in the series with HepG2 cells [6] turned out to be 22.32 ± 5.09%.

For the compound `C[C@H](N)C(=O)N1C[C@H](O)C[C@H]1C(=O)O` [Ala-Hyp] (H-Ala-[Hyp]-OH; N-terminus and C-terminus assumed), the apparent permeability coefficient (Papp) at 2 h in series [7] came out at 0.725 ± 0.195 ×10⁻⁶ cm/s. Further, the apical-to-basolateral permeability (Papp A→B) at 2 h was determined as 0.725 ± 0.195 ×10⁻⁶ cm/s in series [7] (CH-GL treatment) and 1.03 ± 0.226 ×10⁻⁶ cm/s in series [7] (CH-OPT treatment). The “Peptide transport (%) across intestinal epithelium” value was found to be 9.27 ± 2.49% in the series with HIEC-6 cells [8] (CH-GL digesta 2 mg/mL apical) and 26.4 ± 5.78% with HIEC-6 cells [8] (CH-OPT digesta 2 mg/mL apical). The compound also registered a bioavailability at 5 h in [9] (Average bioavailability after first pass metabolism, average) of more than 20%. The “Hepatic effect (%)” value was 304.9 ± 57.2% with HepG2 cells [10] (CH-GL) and 198.0 ± 107.6% in the series on HepG2 cells [10] (CH-OPT).

The compound `O=C(O)CNC(=O)[C@@H]1C[C@@H](O)CN1` [Hyp-Gly] (H-[Hyp]-Gly-OH; N-terminus and C-terminus assumed) displayed a bioavailability at 5 h in the series “in vitro [1]” (setting [11]) of more than 32%. The “Apparent permeability coefficient (Papp)” value with HIEC-6 cells [4] (human, 2 h) is on record as 5.593 ± 2.476 × 10^−6 cm/s. Also, in “in vitro [5]”, the Papp A→B at 2 h stood at 6.74 ± 1.2 ×10⁻⁶ cm/s. Further, the Papp in the series with Caco-2 cells (Caco-2) is 1e-05 cm/s. Moreover, the “Transport (%)” value in the series on Caco-2 cells is reported as 22.63 ± 5.19%.

Regarding `O=C(O)[C@@H]1C[C@@H](O)CN1C(=O)[C@@H]1CCCN1` [Pro-Hyp] (H-Pro-[Hyp]-OH; N-terminus and C-terminus assumed), the Papp A→B at 2 h in series [7] (CH-GL treatment) is 1.91 ± 0.479 ×10⁻⁶ cm/s. Further, the figures for the “Peptide transport (%) across intestinal epithelium” value with HIEC-6 cells [8] (CH-GL digesta 2 mg/mL apical) and in the series with HIEC-6 cells [8] (CH-OPT digesta 2 mg/mL apical) were 19.18 ± 4.81% and 24.15 ± 1.42%, respectively. Moreover, the bioavailability at 5 h in series [9] (Bioavailability (%) after first pass metabolism, CH-GL, basolateral 5 h as percentage of apical 0 h, mean ± SEM) came to 26.8 ± 3.97%; in [9] (Bioavailability (%) after first pass metabolism, CH-OPT, basolateral 5 h as percentage of apical 0 h, mean ± SEM), 15.4 ± 2.6%. Further, the Papp in the series on Caco-2 cells (Caco-2, LC-MS/MS, ref 15 (Sontakke et al. 2016)) is given as 0.13 ± 0.03 × 10^−6 cm/s; with Caco-2 cells (cell model not printed at the place, ref 40 (Feng et al. 2017)), 1.45 ± 0.17 × 10^−6 cm/s. For the same compound, the entries for the “Hepatic effect (%)” value with HepG2 cells [10] (CH-GL) and in the series on HepG2 cells [10] (CH-OPT) were 151.4 ± 24.3% and 63.63 ± 8.63%, respectively.

With `NCC(=O)N1CCC[C@H]1C(=O)O` [Gly-Pro] (H-Gly-Pro-OH; N-terminus and C-terminus assumed), in “in vitro [1]” (setting [11]), the bioavailability at 5 h was more than 32%.
